# Laboratory results taken from patent publication US9271960B2, “Tetrahydrocarbazoles as active agents for inhibiting VEGF production by translational control” (PTC Therapeutics, Inc., priority 2004, dated 2016).
# Counter-ions that a name gives are not always drawn.
# Tested on: VEGF
# Test: Hypoxia-inducible endogenous VEGF expression ELISA in HeLa cells
# Type: cell-based
# Settings: Homo sapiens, HeLa, compounds 1-155, hypoxic conditions (1% O2), VEGF protein by ELISA, read-out: ELISA Activity
# Procedure: The ability of compounds of the invention to modulate hypoxia-inducible endogenous VEGF expression is analyzed as follows. VEGF protein levels are monitored by an ELISA assay (R&D Systems). Briefly, HeLa cells are cultured for 24-48 hours under hypoxic conditions (1% O2, 5% CO2, balanced with nitrogen) in the presence or absence of a compound of the invention. The conditioned media is then assayed by ELISA, and the concentration of VEGF is calculated from the standard ELISA curve of each assay.
# A dose-response analysis is performed using the ELISA assay and conditions described above. A series of different concentrations (e.g., seven) are analyzed. In parallel, a dose-response cytotoxicity assay is performed using Cell Titer Glo (Promega) under the same conditions as the ELISA to ensure that the inhibition of VEGF expression is not due to cytotoxicity. Dose-response curves are plotted using percentage inhibition versus concentration of the compound, and EC50 and CC50 values are generated for each compound with the maximal inhibition set as 100% and the minimal inhibition as 0%.
# Compounds 156-188 in Table 1 are commercially available. In Table 1, each of the represented compounds is followed by one to five stars.
row,SMILES,EC50 [nM]
1,"CN(C)c1ccc(NC2CCCc3c2[nH]c2ccc(Br)cc32)cc1 (centres unmarked) [Compound 61, N-(6-Bromo-2,3,4,9-tetrahydro-1H-carbazol-1-yl)-N′,N′-dimethyl-benzene-1,4-diamine]",200 to 1000
2,"Brc1ccc2[nH]c3c(c2c1)CCCC3 [Compound 83, 6-Bromo-2,3,4,9-tetrahydro-1H-carbazole]",> 1000
3,"c1ccc2c3c([nH]c2c1)C(Nn1cccc1)CCC3 (centres unmarked) [Compound 101, Pyrrol-1-yl-(2,3,4,9-tetrahydro-1H-carbazol-1-yl)-amine]",> 1000
4,"Brc1cccc2[nH]c3c(c12)CCCC3Nc1ccccc1 (centres unmarked) [Compound 43, (5-Bromo-2,3,4,9-tetrahydro-1H-carbazol-1-yl)-phenyl-amine]",40 to 200
5,"Brc1ccc2[nH]c3c(c2c1)CCCC3n1ccc(CNc2ccccc2)c1 (centres unmarked) [Compound 49, [1-(6-Bromo-2,3,4,9-tetrahydro-1H-carbazol-1-yl)-1H-pyrrol-3-ylmethyl]-phenyl-amine]",40 to 200
6,"Cc1cc(C(=O)NC2CCCc3c2[nH]c2ccc(Br)cc32)no1 (centres unmarked) [Compound 151, 5-Methyl-isoxazole-3-carboxylic acid (6-bromo-2,3,4,9-tetrahydro-1H-carbazol-1-yl)-amide]",10 to 40
7,"Brc1ccc2[nH]c3c(c2c1)CCCC3NCc1ccc2c(c1)OCO2 (centres unmarked) [Compound 62, Benzo[1,3]dioxo-5-ylmethyl-(6-bromo-2,3,4,9-tetrahydro-1H-carbazol-1-yl)-amine]",200 to 1000
8,"O=C(NC1CCCc2c1[nH]c1ccc(Br)cc21)c1ccco1 (centres unmarked) [Compound 123, Furan-2-carboxylic acid (6-bromo-2,3,4,9-tetrahydro-1H-carbazol-1-yl)-amide]",10 to 40
9,"COc1cccc(NC2CCCc3c2[nH]c2ccc(Br)cc32)c1 (centres unmarked) [Compound 10, (6-Bromo-2,3,4,9-tetrahydro-1H-carbazol-1-yl)-(3-methoxy-phenyl)-amine]",< 10
10,"Brc1ccc2[nH]c3c(c2c1)CCCC3c1nc2ccccc2o1 (centres unmarked) [Compound 129, 1-Benzooxazol-2-yl-6-bromo-2,3,4,9-tetrahydro-1H-carbazole]",< 10
11,"O=C(NC1CCCc2c1[nH]c1ccc(Br)cc21)c1ccc(-c2ccc(Cl)cc2)o1 (centres unmarked) [Compound 125, 5-(4-Chloro-phenyl)-furan-2-carboxylic acid (6-bromo-2,3,4,9-tetrahydro-1H-carbazol-1-yl)-amide]",40 to 200
12,"Brc1ccc2[nH]c3c(c2c1)CCCC3NCCCn1ccnc1 (centres unmarked) [Compound 114, (6-Bromo-2,3,4,9-tetrahydro-1H-carbazol-1-yl)-(3-imidazol-1-yl-propyl)-amine]",> 1000
13,"Clc1ccc(NC2CCCc3c2[nH]c2ccc(Cl)cc32)cc1 (centres unmarked) [Compound 135, (4-Chloro-phenyl)-(6-chloro-2,3,4,9-tetrahydro-1H-carbazol-1-yl)-amine]",10 to 40
14,"COC(=O)c1ccn(C2CCCc3c2[nH]c2ccc(Br)cc32)c1 (centres unmarked) [Compound 26, 1-(6-Bromo-2,3,4,9-tetrahydro-1H-carbazol-1-yl)-1H-pyrrole-3-carboxylic acid methyl ester]",10 to 40
15,"COc1ccc(NC2CCCc3c2[nH]c2ccc(Cl)cc32)cc1 (centres unmarked) [Compound 136, (6-Chloro-2,3,4,9-tetrahydro-1H-carbazol-1-yl)-(4-methoxy-phenyl)-amine]",< 10
16,"O=C(NC1CCCc2c1[nH]c1ccc(Br)cc21)c1cc2ccccc2[nH]1 (centres unmarked) [Compound 127, 1H-lndole-2-carboxylic acid (6-bromo-2,3,4,9-tetrahydro-1H-carbazol-1-yl)-amide]",40 to 200

row,SMILES,EC50 [nM]
1,"O=C(NC1CCCc2c1[nH]c1ccc(Br)cc21)c1ccno1 (centres unmarked) [Compound 150, isoxazole-5-carboxylic acid (6-bromo-2,3,4,9-tetrahydro-1H-carbazol-1-yl)-amide]",10 to 40
2,"CC(C)c1ccc(NC2CCCc3c2[nH]c2ccc(Br)cc32)cc1 (centres unmarked) [Compound 8, (6-Bromo-2,3,4,9-tetrahydro-1H-carbazol-1-yl)-(4-isopropyl-phenyl)-amine]",< 10
3,"O=C1CCCc2c1[nH]c1cc(Br)ccc21 [Compound 110, 7-Bromo-2,3,4,9-tetrahydro-carbazol-1-one]",> 1000
4,"Brc1ccc2[nH]c3c(c2c1)CCCC3n1ccc(CN2CCOCC2)c1 (centres unmarked) [Compound 64, 6-Bromo-1-(3-morpholin-4-ylmethyl-pyrrol-1-yl)-2,3,4,9-tetrahydro-1H-carbazole]",200 to 1000
5,"Brc1ccc2[nH]c3c(c2c1)CCc1cnoc1-3 [Compound 78, 7-Bromo-4,10-dihydro-5H-1-oxa-2,10-diaza-cyclopenta[a]fluorine]",> 1000
6,"FC(F)(F)c1ccc(NC2CCCc3c2[nH]c2ccc(Br)cc32)cc1 (centres unmarked) [Compound 6, (6-Bromo-2,3,4,9-tetrahydro-1H-carbazol-1-yl)-(4-trifluoromethyl-phenyl)-amine]",< 10
7,"N#Cc1ccn(C2CCCc3c2[nH]c2ccc(Br)cc32)c1 (centres unmarked) [Compound 42, 1-(6-Bromo-2,3,4,9-tetrahydro-1H-carbazol-1-yl)-1H-pyrrole-3-carbonitrile]",40 to 200
8,"Brc1ccc2[nH]c3c(c2c1)CCc1cnn(-c2ccccc2)c1-3 [Compound 109, 7-Bromo-1-phenyl-1,4,5,10-tetrahydro-1,2,10-triaza-cyclopenta[a]fluorine]",> 1000
9,"CC(C)(C)CCNC1CCCc2c1[nH]c1ccc(Br)cc21 (centres unmarked) [Compound 79, (6-Bromo-2,3,4,9-tetrahydro-1H-carbazol-1-yl)-(3,3-dimethyl-butyl)-amine]",> 1000
10,"Brc1ccc2[nH]c3c(c2c1)CCCC3N1Cc2ccccc2C1 (centres unmarked) [Compound 7, 6-Bromo-1-(1,3-dihydro-isoindol-2-yl)-2,3,4,9-tetrahydro-1H-carbazole]",< 10
11,"FC(F)(F)c1ccc2[nH]c3c(c2c1)CCCC3Nc1ccccc1 (centres unmarked) [Compound 14, Phenyl-(6-trifluoromethyl-2,3,4,9-tetrahydro-1H-carbazol-1-yl)-amine]",< 10
12,"Brc1ccc2[nH]c3c(c2c1)CCCC3NCc1ccco1 (centres unmarked) [Compound 68, (6-Bromo-2,3,4,9-tetrahydro-1H-carbazol-1-yl)-furan-2-ylmethyl-amine]",200 to 1000
13,"COc1ccc2[nH]c3c(c2c1)CCCC3N (centres unmarked) [Compound 95, 6-Methoxy-2,3,9-tetrahydro-1H-carbazol-1-ylamine]",> 1000
14,"NC1CCCc2c1[nH]c1ccc(Cl)cc21 (centres unmarked) [Compound 96, 6-Chloro-2,3,4,9-tetrahydro-1H-carbazol-1-ylamine]",> 1000
15,"COc1ccc(C(=O)NC2CCCc3c2[nH]c2ccc(Br)cc32)cc1 (centres unmarked) [Compound 130, N-(6-Bromo-2,3,4,9-tetrahydro-1H-carbazol-1-yl)-4-methoxy-benzamide]",10 to 40
16,"O=C(NC1CCCc2c1[nH]c1ccc(Br)cc21)c1ccccc1 (centres unmarked) [Compound 21, N-(6-Bromo-2,3,4,9-tetrahydro-1H-carbazol-1-yl)-benzamide]",< 10

# Same assay, conditions: Homo sapiens, HeLa, compounds 191-239, hypoxic conditions, VEGF protein by ELISA, read-out: ELISA Activity EC50
row,SMILES,EC50 [nM]
1,OC(COc1ccc(C2CCCCc3c2[nH]c2ccc(Br)cc32)cc1)Cn1cncn1 (centres unmarked) [Compound 226],40 to 200
2,CC(=O)N1CCN(CC(O)COc2ccc(C3CCCc4c3[nH]c3ccc(Cl)cc43)cc2)CC1 (centres unmarked) [Compound 214],40 to 200
3,Brc1ccc2[nH]c3c(c2c1)CCCC3c1ccc(OCC2CO2)cc1 (centres unmarked) [Compound 194],< 10
4,OC1CCc2c([nH]c3ccc(Br)cc23)C1c1ccc(Cl)cc1 (centres unmarked) [Compound 238],< 10
5,OC(COc1ccc(C2CCCc3c2[nH]c2ccc(Cl)cc32)cc1)CN1CCOCC1 (centres unmarked) [Compound 215],10 to 40
6,COCCN(C)CCCOc1ccc(C2CCCc3c2[nH]c2ccc(Br)cc32)cc1 (centres unmarked) [Compound 207],10 to 40

# Same assay, conditions: Homo sapiens, HeLa, purchased compounds 156-188, hypoxic conditions, VEGF protein by ELISA, read-out: ELISA Activity
row,SMILES,EC50 [nM]
1,"Cc1ccc2c(c1)c1c3n2CCCN(Cc2cccc(Cl)c2)C3CCC1 (centres unmarked) [Compound 180, 4-(3-Chloro-benzyl)-11-methyl-1,2,3,3a,4,5,6,7-octahydro-[1,4]diazepino[3,2,1-jk]carbazole]",> 1000
2,"OCCNC1CCCc2c1[nH]c1ccc(Br)cc21 (centres unmarked) [Compound 168, 2-(6-Bromo-2,3,4,9-tetrahydro-1H carbazol-1-ylamino)-ethanol hydrochloride]",> 1000
3,"Cc1ccc2c(c1)c1c3n2CCNC3CCC1 (centres unmarked) [Compound 169, 8-Methyl-2,3,3a,4,5,6-hexahydro-1H-pyrazino[3,2,1-jk]carbazole hydrochloride]",> 1000
4,O=[N+]([O-])c1ccc2[nH]c3c(c2c1)CCCC3NC1CCC(c2ccccc2)CC1 (centres unmarked) [Compound 157],10 to 40
5,"Cc1ccc2c(c1)c1c3n2CCN(C(=O)CN2CCN(C(=O)c4ccco4)CC2)C3CCC1 (centres unmarked) [Compound 170, 2-[4-(Furan-2-carbonyl)-piperazin-1-yl]-(8-methyl-1,2,3,3a,4,5,6-hexahydro-pyrazino[3,2,1-jk]carbazol-3-yl)-ethanone]",> 1000
6,"S=C(Nc1ccccc1)N1CCn2c3c(c4cc(C5CCCCC5)ccc42)CCCC31 (centres unmarked) [Compound 164, 8-Cyclohexyl-1,2,3a,4,5,6-hexahydro-pyrazino[3,2,1-jk]carbazole-3-carbothioic acid phenylamide]",> 1000

# Same assay, conditions: Homo sapiens, HeLa, purchased compounds 156-188, hypoxic conditions, VEGF protein by ELISA, read-out: ELISA EC50
row,SMILES,EC50 [nM]
1,"Cc1ccc2c(c1)c1c3n2CCCN(Cc2cccc(Cl)c2)C3CCC1 (centres unmarked) [Compound 180, 4-(3-Chloro-benzyl)-11-methyl-1,2,3,3a,4,5,6,7-octahydro-[1,4]diazepino[3,2,1-jk]carbazole]",> 10000
2,"OCCNC1CCCc2c1[nH]c1ccc(Br)cc21 (centres unmarked) [Compound 168, 2-(6-Bromo-2,3,4,9-tetrahydro-1H carbazol-1-ylamino)-ethanol hydrochloride]",7720
3,"Cc1ccc2c(c1)c1c3n2CCNC3CCC1 (centres unmarked) [Compound 169, 8-Methyl-2,3,3a,4,5,6-hexahydro-1H-pyrazino[3,2,1-jk]carbazole hydrochloride]",> 10000
4,O=[N+]([O-])c1ccc2[nH]c3c(c2c1)CCCC3NC1CCC(c2ccccc2)CC1 (centres unmarked) [Compound 157],14.9
5,"Cc1ccc2c(c1)c1c3n2CCN(C(=O)CN2CCN(C(=O)c4ccco4)CC2)C3CCC1 (centres unmarked) [Compound 170, 2-[4-(Furan-2-carbonyl)-piperazin-1-yl]-(8-methyl-1,2,3,3a,4,5,6-hexahydro-pyrazino[3,2,1-jk]carbazol-3-yl)-ethanone]",> 10000
6,"S=C(Nc1ccccc1)N1CCn2c3c(c4cc(C5CCCCC5)ccc42)CCCC31 (centres unmarked) [Compound 164, 8-Cyclohexyl-1,2,3a,4,5,6-hexahydro-pyrazino[3,2,1-jk]carbazole-3-carbothioic acid phenylamide]",2170
